Measurements reported in PMC9321663, “The DevTox Germ Layer Reporter Platform: An Assay Adaptation of the Human Pluripotent Stem Cell Test” (Toxics, 2022).
Like-named read-outs stand apart in the source and are kept apart here. One block for each compound: values may come before it.

Experiments:
[1] = tested on: SOX17 (endoderm marker) in RUES2-GLR cells; assay: DevTox GLR-Endo assay: decrease in percent SOX17-positive cells (AEID 3094, Sox17_dn); details: for Hit Call: Table S2, SOX17-positive cells, cutoff 3*bmad; for DevTox ACC: Table S2, percent SOX17-positive cells; for HIT−CALL: tcpl plot AEID3094, COFF 20.3
Outline: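 Readouts are loss of SOX17-positive fraction and reduced cell number in endoderm-differentiating RUES2-GLR cells after 48 h of chemical exposure. Controls: undifferentiated and differentiated cells, 0.2% DMSO, and 1 µM SB431542; at least four biological replicates.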

in vitro = details: human
RUES2-GLR cells = assay: DevTox GLR-Endo assay: decrease in total cell count, cytotoxicity (AEID 3098, CellCount_dn); details: for Emax: Homo sapiens, read-out: Cell Count % Max Inhibition
[2] = tested on: SOX17 (endoderm marker) in RUES2-GLR cells; assay: DevTox GLR-Endo assay: increase in percent SOX17-positive cells (AEID 3093, Sox17_up); type: cell-based, human; details: for Emax: Homo sapiens; for HIT−CALL: tcpl plot AEID3093, COFF 20.3
Procedure: (§1) The total test chemical incubation period was 48 h.
(§2) (Supplementary Materials).

[3] = tested on: SOX17 in H9 human ESC line; details: SOX17 half-maximal inhibition concentration; read-out: hPST IC50; cited from earlier work
H9 human ESC line = details: cited from earlier work
[4] = cited from earlier work; for Development Toxicant Classification: Table S2; for Classification: developmental toxicant classification (Teratogen / Non-Teratogen) of reference and training chemicals, ref DOI per chemical: 10.1093/toxsci/kft239, 10.1093/toxsci/kfaa014, 10.1177/026119290203000204, 10.1038/s41598-020-59542-x; for DT Class.: developmental toxicant classification, chemicals common with hPST
[5] = tested on: SOX2 (ectoderm and pluripotency marker) in RUES2-GLR cells; assay: DevTox GLR-Endo assay: increase in percent SOX2-positive cells (AEID 3095, Sox2_up); details: for AC50 / Emax: Homo sapiens; for AC50: read-out: ga (winning model); for Emax: read-out: tp (winning model); for MAX_MEAN: tcpl plot AEID3095, maximum mean response; for MAX_MED: tcpl plot AEID3095, maximum median response;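 on all read-outs here: cells exposed to test chemicals for 48 h in total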
[6] = tested on: BRA (mesoderm marker) in RUES2-GLR cells; assay: DevTox GLR-Endo assay: increase in percent BRA-positive cells (AEID 3096, Bra_up); type: cell-based, human
Procedure: as §1, §2

[7] = Homo sapiens, 48 h, read-out: DevTox-GLR Endo AC50 (µM), SOX17 half-maximal activity concentration, 48 h exposure
[8] = Homo sapiens, read-out: DevTox % Max Inhibition
[9] = Homo sapiens, read-out: MAX_MEAN
[10] = Homo sapiens, read-out: MAX_MED
[11] = Homo sapiens, read-out: ga (winning model), tcpl plot AEID3094, gain parameter of winning curve fit (log concentration, µM axis), hit calls only (converted)
[12] = Homo sapiens, read-out: tp (winning model)
[13] = tcpl plot AEID3093, maximum mean response, read-out: MAX_MEAN
[14] = tcpl plot AEID3093, maximum median response, read-out: MAX_MED
[15] = cytotoxicity half-maximal concentration
[16] = read-out: DevTox-GLR Endo AC50, SOX17 half-maximal activity concentration, 48 h exposure
[17] = RUES2-GLR cells under directed endoderm differentiation

Cell Count ACC (RUES2-GLR cells; human, 48 h): 3.994 µM
SMILES: O=c1[nH]c(=O)n([C@H]2C[C@H](O)[C@@H](CO)O2)cc1Br [5-Bromo-2’-deoxyuridine]
SOX17 ACC relative to cytotoxic concentration (in words) [1]: below cytotoxic concentrations
AC50 [1, 7]: 0.55 µM
Emax [1, 8]: 102%
Emax [1, 9]: 102%
Emax [1, 10]: 102%
AC50 [1, 11]: 0.548 µM
Emax [1, 12]: 101%
Hit Call [1]: Positive
DevTox ACC ([1]; 48 h exposure): 0.4591 µM
HIT−CALL [1]: 1
CC50 at 48 h (in vitro): 9.37 µM
Emax (RUES2-GLR cells): 87.6%
Emax [2, 13]: -2.88%
Emax [2, 14]: -2.98%
HIT−CALL [2]: 0
IC50 [3]: 0.2 µM
hPST TC50 (H9 human ESC line; [15]): 3.4 µM
hPST TC50 (H9 human ESC line; hPST cytotoxicity): 3.4 µM
Development Toxicant Classification [4]: Positive
Classification [4]: Teratogen
DT Class. [4]: Pos
AC50 [5]: 13.2 µM
Emax [5]: 2.13%
MAX_MEAN [5]: 2.12 Percent Activity
MAX_MED [5]: 2.23 Percent Activity

SMILES: CC1=C(/C=C/C(C)=C/C=C/C(C)=C\C(=O)O)C(C)(C)CCC1
SOX17 ACC relative to cytotoxic concentration (in words) [1]: below cytotoxic concentrations
Hit Call [1]: Positive
DevTox % Max Inhibition ([1]; Table S2, percent SOX17-positive cells relative to DMSO): 100.964%
DevTox ACC ([1]; 48 h exposure): 0.02117 µM
AC50 [1, 16]: 0.16 µM
HIT−CALL [1]: 1
ga (winning model) ([1]; tcpl plot AEID3094, gain parameter of winning curve fit (log concentration, µM axis), hit calls only): −0.807
MAX_MEAN ([1]; tcpl plot AEID3094, maximum mean response): 101 Percent Activity
MAX_MED ([1]; tcpl plot AEID3094, maximum median response): 101 Percent Activity
tp (winning model) ([1]; tcpl plot AEID3094, top of winning curve fit (Hill or gain-loss), hit calls only): 100
Cell Count ACC (RUES2-GLR cells): 4.122 µM
Cell Count % Max Inhibition (RUES2-GLR cells; Table S2, cell count relative to DMSO): 97.7228%
CC50 (RUES2-GLR cells; read-out: DevTox-GLR Endo CC50, cell count half-maximal concentration, 48 h exposure): 10.2 µM
HIT−CALL [2]: 0
MAX_MEAN ([2]; tcpl plot AEID3093, maximum mean response): −11.9 Percent Activity
MAX_MED ([2]; tcpl plot AEID3093, maximum median response): −11.9 Percent Activity
IC50 [3]: 0.2 µM
hPST TC50 (H9 human ESC line; [15]): 140 µM
hPST TC50 (H9 human ESC line; hPST cytotoxicity): 140 µM
Development Toxicant Classification [4]: Positive
Classification [4]: Teratogen
DT Class. [4]: Pos
ga (winning model) ([5]; tcpl plot AEID3095, gain parameter of winning curve fit (log concentration, µM axis), hit calls only): 1.54
MAX_MEAN [5]: 47.5 Percent Activity
MAX_MED [5]: 48.5 Percent Activity
tp (winning model) ([5]; tcpl plot AEID3095, top of winning curve fit (Hill or gain-loss), hit calls only): 39.6

SMILES: Cn1c(=O)c2c(ncn2C)n(C)c1=O [Caffeine]
AC50 ([1]; Homo sapiens, 48 h, read-out: DevTox-GLR Endo AC50 (µM)): > 200 µM
Emax [1, 8]: 9.41%
Emax [1, 9]: 6.68%
Emax [1, 10]: 9.41%
Hit Call [1]: Negative
DevTox ACC ([1]; 48 h exposure): >200 µM
HIT−CALL [1]: 0
CC50 at 48 h (in vitro): > 200 µM
Emax (RUES2-GLR cells): 10.3%
Cell Count ACC (RUES2-GLR cells; human, 48 h): >200 µM
Emax [2, 13]: 9.91%
Emax [2, 14]: 11%
HIT−CALL [2]: 0
HIT−CALL ([6]; tcpl plot AEID3096, COFF 0.774): 1
MAX_MEAN ([6]; tcpl plot AEID3096, maximum mean response): 1.09 Percent Activity
IC50 [3]: > 400 µM
MAX_MEAN [5]: 0.413 Percent Activity
MAX_MED [5]: 0.416 Percent Activity

Cell Count ACC (RUES2-GLR cells; human, 48 h): 28.1982 µM
SMILES: COc1ccc2nc([S@@+]([O-])Cc3ncc(C)c(OC)c3C)[nH]c2c1 [Esomeprazole]
SOX17 ACC relative to cytotoxic concentration (in words) [1]: below cytotoxic concentrations
hit call designation (in words) ([1]; DevTox GLR-Endo prediction against developmental toxicant classification): false positive
AC50 [1, 7]: 34 µM
Emax [1, 8]: 101%
Emax [1, 9]: 101%
Emax [1, 10]: 101%
AC50 [1, 11]: 33.9 µM
Emax ([1]; Homo sapiens, read-out: maximum observed effect level class (% max inhibition)): 80 to 100%
Emax [1, 12]: 123%
Hit Call [1]: Positive
DevTox ACC ([1]; 48 h exposure): 12.9286 µM
AC50 [1, 16]: 33.8 µM
HIT−CALL [1]: 1
CC50 at 48 h (in vitro; [17]): 38.5 µM
Emax (RUES2-GLR cells): 94%
Emax [2, 13]: 0.101%
Emax [2, 14]: 1.23%
HIT−CALL [2]: 0
IC50 [3]: 32 µM
hPST TC50 (H9 human ESC line; [15]): 101 µM
hPST TC50 (H9 human ESC line; hPST cytotoxicity): 101 µM
Development Toxicant Classification [4]: Negative
Classification [4]: Non-Teratogen
DT Class. [4]: Neg
AC50 [5]: 69.2 µM
Emax [5]: 17.4%
MAX_MEAN [5]: 23.9 Percent Activity
MAX_MED [5]: 21.6 Percent Activity

SMILES: CNC(=O)c1cc(Oc2ccc(NC(=O)Nc3ccc(Cl)c(C(F)(F)F)c3)cc2)ccn1 [Sorafenib]
AC50 [1, 7]: 0.62 µM
Emax [1, 8]: 102%
Emax [1, 9]: 102%
Emax [1, 10]: 102%
AC50 [1, 11]: 0.618 µM
Emax [1, 12]: 101%
Hit Call [1]: Positive
DevTox ACC ([1]; 48 h exposure): 0.5004 µM
HIT−CALL [1]: 1
CC50 at 48 h (in vitro; [17]): 0.61 µM
Emax (RUES2-GLR cells): 95.8%
Cell Count ACC (RUES2-GLR cells; Table S2, 48 h exposure): 0.4993 µM
Emax [2, 13]: 8.73%
Emax [2, 14]: 9.19%
HIT−CALL [2]: 0
IC50 [3]: < 2 µM
hPST TC50 (H9 human ESC line; [15]): <2 µM
hPST TC50 (H9 human ESC line; hPST cytotoxicity): < 2 µM
Development Toxicant Classification [4]: Positive
Classification [4]: Teratogen
DT Class. [4]: Pos
AC50 [5]: 0.748 µM
Emax [5]: 8.9%
MAX_MEAN [5]: 13.6 Percent Activity
MAX_MED [5]: 11.9 Percent Activity

Cell Count ACC (RUES2-GLR cells; human, 48 h): 1.527 µM
SMILES: O=C1Cc2cc(CCN3CCN(c4nsc5ccccc45)CC3)c(Cl)cc2N1 [Ziprasidone]
AC50 [1, 7]: 3.57 µM
Emax [1, 8]: 101%
Emax [1, 9]: 101%
Emax [1, 10]: 101%
AC50 [1, 11]: 3.56 µM
Emax [1, 12]: 101%
Hit Call [1]: Positive
DevTox ACC ([1]; 48 h exposure): 2.997 µM
HIT−CALL [1]: 1
CC50 at 48 h (in vitro): 2.42 µM
Emax (RUES2-GLR cells): 93.7%
Emax [2, 13]: 3.27%
Emax [2, 14]: 4.35%
HIT−CALL [2]: 0
IC50 [3]: 2.8 µM
hPST TC50 (H9 human ESC line; [15]): 5.1 µM
hPST TC50 (H9 human ESC line; hPST cytotoxicity): 5.1 µM
Development Toxicant Classification [4]: Positive
Classification [4]: Teratogen
DT Class. [4]: Pos
AC50 [5]: 3.67 µM
Emax [5]: 4.2%
MAX_MEAN [5]: 4.63 Percent Activity
MAX_MED [5]: 4.3 Percent Activity

Cell Count ACC (RUES2-GLR cells; human, 48 h): >200 µM
SMILES: Nc1nc2ncc(CNc3ccc(C(=O)N[C@@H](CCC(=O)O)C(=O)O)cc3)nc2c(=O)[nH]1 [Folic Acid]
AC50 [1, 7]: > 200 µM
Emax [1, 8]: 16.4%
Emax [1, 9]: 13.8%
Emax [1, 10]: 16.4%
Hit Call [1]: Negative
DevTox ACC ([1]; 48 h exposure): >200 µM
HIT−CALL [1]: 0
CC50 at 48 h (in vitro): > 200 µM
Emax (RUES2-GLR cells): 13.7%
Emax [2, 13]: 8.84%
Emax [2, 14]: 8.92%
HIT−CALL [2]: 0
IC50 [3]: 39 µM
hPST TC50 (H9 human ESC line; [15]): 84 µM
hPST TC50 (H9 human ESC line; hPST cytotoxicity): 84 µM
MAX_MEAN [5]: 0.885 Percent Activity
MAX_MED [5]: 0.515 Percent Activity

SMILES: c1cc(-c2cnn3cc(-c4ccc(OCCN5CCCCC5)cc4)cnc23)ccn1 [Dorsomorphin]
AC50 [1, 7]: 17.1 µM
Emax [1, 8]: 99.6%
Emax [1, 9]: 99.4%
Emax [1, 10]: 99.6%
AC50 [1, 11]: 17 µM
Emax [1, 12]: 114%
Hit Call [1]: Positive
DevTox ACC ([1]; 48 h exposure): 8.65 µM
HIT−CALL [1]: 1
CC50 at 48 h (in vitro): 16.7 µM
Emax (RUES2-GLR cells): 95.1%
Cell Count ACC (RUES2-GLR cells; human, 48 h): 6.307 µM
Emax [2, 13]: 9.04%
Emax [2, 14]: 8.93%
HIT−CALL [2]: 0
IC50 [3]: 0.3 µM
hPST TC50 (H9 human ESC line; [15]): 2.4 µM
hPST TC50 (H9 human ESC line; hPST cytotoxicity): 2.4 µM
Development Toxicant Classification [4]: Positive
Classification [4]: Teratogen
DT Class. [4]: Pos
AC50 [5]: 10.7 µM
Emax [5]: 38.7%
MAX_MEAN [5]: 16.8 Percent Activity
MAX_MED [5]: 17 Percent Activity
